{"source": "patent US20060251717A1", "about": "“Memantine Oral Dosage Forms” (priority 2003, published 2006)", "assay": "Administration of memantine in 2 mg weekly increments to a patient suffering from glaucoma, tolerance observed", "format": "in vivo", "conditions": "2 mg tablet for one week", "description": "In certain cases, the initial administration of 5 mg of memantine, or the increase in the dosage by 5 mg increments, may be more than can be tolerated by the patient. […] The term adverse event refers to any undesirable side effect or toxic effect associated with memantine. In relation to embodiments of this type, it is preferable that the dose of memantine is increase by an increment of about 0.25 to about 0.5 mg each day until the maintenance dose is reached.\n(§1) To a patient suffering from glaucoma, is administered a tablet comprising 2 mg of memantine is administered for one week. The patient then receives a tablet comprising a 4 mg dose for one week. The dose is increased by 2 mg each week until a 10 mg dose is reached at the beginning of the fifth week. […] The tablet comprising 10 mg of memantine is administered daily for as long as the drug is needed.\nas §1, with “20” for “10”, “tenth” for “fifth”"}
{"smiles": "CC12CC3CC(C)(C1)CC(N)(C3)C2", "note": "[memantine]", "values": [{"measurement": "tolerance of the drug", "setting": "dose increased by 2 mg each week until 10 mg at beginning of fifth week, first four weeks of administration", "result": "improved tolerance"}, {"measurement": "tolerance of the drug", "setting": "dose increased by 2 mg each week until 20 mg at beginning of tenth week, first nine weeks of administration", "result": "improved tolerance"}]}
